Results published in the supplement of paper PMC9938120.

Experiments:
Test in all cases: drug sensitivity score (DSS3, normalised partial AUC of % inhibition dose-response) (DSS (score)); higher = more sensitive (stronger inhibition of viability); extreme values may be limits of the assay
FMOC02_1 = patient-derived low-grade serous ovarian cancer cells; settings: 72 h; library: FO5A; assay format: 2D, 384-well, CellTiter-Glo
Procedure, shortened: (§1)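 Cells were dispensed onto 384-well flat clear-bottom plates already holding compounds at five concentrations over a 10,000-fold range, using patient-derived ovarian cancer cells at passage under 10. Incubation lasted 72 h at 37 °C in 5% CO2, after which CellTiter-Glo viability data were processed in Breeze. Higher drug sensitivity scores, each a partial area under the percent-inhibition dose-response curve divided by the log of the upper asymptote, mean more sensitive cells.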

FMOC02_2 = patient-derived low-grade serous ovarian cancer cells; settings: 72 h; library: FO5A; assay format: 2D, 384-well, CellTiter-Glo
Procedure, shortened: as §1

FMOC02_3 = patient-derived low-grade serous ovarian cancer cells; settings: 72 h; library: FO5A; assay format: 2D, 384-well, CellTiter-Glo
Procedure, shortened: as §1

FMOC03 = patient-derived mucinous ovarian cancer cells; settings: 72 h; library: FO5A; assay format: 2D, 384-well, CellTiter-Glo
Procedure, shortened: as §1

FMOC04 = patient-derived high-grade serous ovarian cancer cells; settings: 72 h; library: FO5A; assay format: 2D, 384-well, CellTiter-Glo
Procedure, shortened: as §1

FMOC06 = patient-derived mucinous ovarian cancer cells; settings: 72 h; library: FO5A; assay format: 2D, 384-well, CellTiter-Glo
Procedure, shortened: as §1

FMOC09 = patient-derived high-grade serous ovarian cancer cells; settings: 72 h; library: FO5A; assay format: 2D, 384-well, CellTiter-Glo
Procedure, shortened: as §1

FMOC11 = patient-derived high-grade serous ovarian cancer cells; settings: 72 h; library: FO5A; assay format: 2D, 384-well, CellTiter-Glo
Procedure, shortened: as §1

FMOC14 = patient-derived high-grade serous ovarian cancer cells; settings: 72 h; library: FO5A; assay format: 2D, 384-well, CellTiter-Glo
Procedure, shortened: as §1

FMOC17 = patient-derived low-grade serous ovarian cancer cells; settings: 72 h; library: FO5A; assay format: 2D, 384-well, CellTiter-Glo
Procedure, shortened: as §1

FMOC22 = patient-derived mucinous ovarian cancer cells; settings: 72 h; library: FO5A; assay format: 2D, 384-well, CellTiter-Glo
Procedure, shortened: as §1

FMOC24 = patient-derived high-grade serous ovarian cancer cells; settings: 72 h; library: FO5A; assay format: 2D, 384-well, CellTiter-Glo
Procedure, shortened: as §1

FMOC25_1 = patient-derived low-grade serous ovarian cancer cells; settings: 72 h; library: FO4B; assay format: 2D, 384-well, CellTiter-Glo
Procedure, shortened: as §1

FMOC25_2 = patient-derived low-grade serous ovarian cancer cells; settings: 72 h; library: FO5A; assay format: 2D, 384-well, CellTiter-Glo
Procedure, shortened: as §1

FMOC27 = patient-derived low-grade serous ovarian cancer cells; settings: 72 h; library: FO5A; assay format: 2D, 384-well, CellTiter-Glo
Procedure, shortened: as §1

FMOC28 = patient-derived low-grade serous ovarian cancer cells; settings: 72 h; library: FO5A; assay format: 2D, 384-well, CellTiter-Glo
Procedure, shortened: as §1

| Compound | drug sensitivity score (FMOC02_1) | drug sensitivity score (FMOC02_2) | drug sensitivity score (FMOC02_3) | drug sensitivity score (FMOC03) | drug sensitivity score (FMOC04) | drug sensitivity score (FMOC06) | drug sensitivity score (FMOC09) | drug sensitivity score (FMOC11) | drug sensitivity score (FMOC14) | drug sensitivity score (FMOC17) | drug sensitivity score (FMOC22) | drug sensitivity score (FMOC24) | drug sensitivity score (FMOC25_1) | drug sensitivity score (FMOC25_2) | drug sensitivity score (FMOC27) | drug sensitivity score (FMOC28) |
| --- | --- | --- | --- | --- | --- | --- | --- | --- | --- | --- | --- | --- | --- | --- | --- | --- |
| C[C@@H]1C=C2C(=O)O[C@@H]3CC[C@H](C1)[C@]23O [Galiellalactone] | 5.9 | 5.9 | 2.3 | 3.9 | 5.9 | 2.5 | 6.7 | 4 | 5.5 | 5.8 | 4.2 | 1.65 | 0 | 4.6 | 3.8 | 6.7 |
| Cc1cccc(-c2nn3c(c2-c2ccnc4ccc(C(N)=O)cc24)CCC3)n1 [Galunisertib] | 0 | 0 | 0 | 0 | 0 | 0 | 0 | 0 | 0 | 0 | 0 | 0.35 | 0 | 0 | 0 | 0 |
| CN1CC[C@@H](NC(=O)Nc2ccc(C#N)cc2)C[C@@H]1c1nc2ccccc2[nH]1 [Glasdegib] | 0 | 0.4 | 0 | 0 | 0 | 0 | 0 | 0 | 0 | 0 | 0 | 2.75 | 0.1 | 5.2 | 0 | 3.7 |
| CN1CCN(C2CCN(C(=O)Nc3cc(Oc4ccc(NC(=O)C5(C(=O)Nc6ccc(F)cc6)CC5)c(F)c4)ccn3)CC2)CC1 [Golvatinib] | 1.2 | 1.2 | 2.2 | 0.5 | 0.7 | 0 | 0 | 0 | 0 | 0.2 | 0 | 3.35 | 0.9 | 4.3 | 0 | 0 |
| CC(C)C[C@H](NC(=O)[C@@H](COC(C)(C)C)NC(=O)[C@H](Cc1ccc(O)cc1)NC(=O)[C@H](CO)NC(=O)[C@H](Cc1c[nH]c2ccccc12)NC(=O)[C@H](Cc1cnc[nH]1)NC(=O)[C@@H]1CCC(=O)N1)C(=O)N[C@@H](CCCNC(=N)N)C(=O)N1CCC[C@H]1C(=O)NNC(N)=O [Goserelin] | 0 | 0 | 0 | 0 | 0 | 0 | 0 | 0 | 0 | 0 | 0 | 0 | 0 | 0 | 0 | 0 |
| O=S(=O)(c1cccc2c(O)nccc12)N1CCCNCC1 [Hydroxyfasudil] | 0 | 0 | 0 | 0 | 0 | 0 | 0 | 0 | 0 | 0 | 0 | 1.25 | 0 | 0 | 0 | 0 |
| NC(=O)NO [Hydroxyurea] | 5.2 | 1.3 | 4.8 | 0.7 | 0.8 | 1.9 | 0.9 | 2.9 | 0 | 1.1 | 0.7 | 1.05 | 0.5 | 3.9 | 1.6 | 0.9 |
| O=C(O)c1ccc(O)c2ncccc12 [IOX-1] | 0 | 0.2 | 0 | 3 | 0 | 1 | 0 | 1.6 | 1.9 | 0 | 1.6 | 0 | 0 | 0 | 0 | 0 |
| O=C(O)CNC(=O)c1c(O)c2ccccc2n(Cc2ccccc2)c1=O [IOX-2] | 0.5 | 0.5 | 0 | 0 | 0 | 0 | 0 | 0 | 0 | 0 | 0 | 1.75 | 0 | 0.9 | 0 | 3.2 |
| CC[C@H](Nc1ncnc2[nH]cnc12)c1nc2cccc(F)c2c(=O)n1-c1ccccc1 [Idelalisib] | 2.3 | 2.4 | 3.7 | 0.4 | 0.1 | 2.7 | 2 | 1.9 | 0 | 2.8 | 0.1 | 0 | 1.4 | 1.1 | 0.4 | 3.3 |
| Cc1ccc(NC(=O)c2ccc(CN3CCN(C)CC3)cc2)cc1Nc1nccc(-c2cccnc2)n1 [Imatinib] | 0.3 | 1.2 | 1.6 | 0.4 | 0 | 0 | 0 | 0 | 2 | 0 | 0 | 2.75 | 0.3 | 0.1 | 0 | 0 |
| CC(C)Cn1cnc2c(N)nc3ccccc3c21 [Imiquimod] | 0 | 0 | 0 | 0 | 0 | 0.5 | 0 | 0 | 0 | 0 | 0 | 0 | 0 | 0 | 0 | 0.9 |
| CCC(C)n1ncn(-c2ccc(N3CCN(c4ccc(OCC5COC(Cn6cncn6)(c6ccc(Cl)cc6Cl)O5)cc4)CC3)cc2)c1=O (stereo not drawn) [Itraconazole] | 5.3 | 3 | 6.6 | 4.5 | 0.1 | 0.7 | 0.8 | 1.2 | 1.3 | 4.8 | 0.2 | 4.9 | 4 | 4.6 | 0.6 | 4.4 |
| C/C(=C\c1csc(C)n1)[C@@H]1C[C@@H]2O[C@]2(C)CCC[C@H](C)[C@H](O)[C@@H](C)C(=O)C(C)(C)[C@@H](O)CC(=O)N1 [Ixabepilone] | 4.1 | 1.7 | 2.6 | 3 | 1.85 | 2.7 | 1.7 | 3.1 | 0 | 4.4 | 2.3 | 0 | 1.1 | 2.5 | 0.9 | 0 |
| CS(=O)(=O)CCNCc1ccc(-c2ccc3ncnc(Nc4ccc(OCc5cccc(F)c5)c(Cl)c4)c3c2)o1 [Lapatinib] | 5.4 | 6.9 | 4.6 | 5.3 | 0 | 1 | 2.9 | 3.3 | 0.5 | 3 | 0 | 0.05 | 3.6 | 3.7 | 4.3 | 4 |
| Oc1ccc2c(c1)CC[C@H](c1ccccc1)[C@@H]2c1ccc(OCCN2CCCC2)cc1 [Lasofoxifene] | 0 | 0 | 0 | 0 | 0 | 0 | 0 | 0 | 1.1 | 0 | 0 | 0 | 0 | 0 | 0 | 0 |
| Nc1cccc2c1CN(C1CCC(=O)NC1=O)C2=O (stereo not drawn) [Lenalidomide] | 0 | 0 | 2.4 | 0 | 0 | 0.1 | 0 | 0 | 0 | 0 | 0 | 0.6 | 0 | 0 | 0 | 0 |
| COc1cc2nccc(Oc3ccc(NC(=O)NC4CC4)c(Cl)c3)c2cc1C(N)=O [Lenvatinib] | 0 | 0 | 0 | 0 | 0 | 0 | 0 | 0 | 0 | 0 | 0 | 0 | 0 | 0.1 | 0 | 0 |
| N#Cc1ccc(C(c2ccc(C#N)cc2)n2cncn2)cc1 [Letrozole] | 0 | 0 | 0 | 0 | 0 | 0 | 0 | 0 | 0 | 0 | 0 | 0 | 0 | 0 | 0 | 0 |
| Cc1ccc(F)c(NC(=O)Nc2ccc(-c3cccc4[nH]nc(N)c34)cc2)c1 [Linifanib] | 0 | 0 | 0 | 0 | 0 | 0 | 0 | 0 | 0 | 0 | 0 | 0 | 0 | 0 | 0 | 0 |
| C[C@]1(O)C[C@@H](c2nc(-c3ccc4ccc(-c5ccccc5)nc4c3)c3c(N)nccn32)C1 [Linsitinib] | 1.2 | 2.7 | 6.9 | 0.1 | 2.5 | 0.8 | 0.1 | 0.1 | 0 | 0.6 | 0 | 2.1 | 3.7 | 5.8 | 0 | 4.9 |
| Nc1nc(OCc2cc(Br)cs2)c2[nH]cnc2n1 [Lomeguatrib] | 0 | 0.8 | 0.4 | 0 | 0 | 0 | 0 | 0 | 0 | 0 | 0 | 0 | 0 | 1.4 | 0 | 2.6 |
| Cc1c(F)cc(C(=O)NC2CC2)cc1-c1ccc(C(=O)NCC(C)(C)C)cn1 [Losmapimod] | 0.1 | 0 | 0 | 0 | 0 | 1 | 0 | 1.4 | 0 | 0 | 0 | 0 | 0 | 0 | 0 | 0 |
